Source: patent US20050074447A1, “Treatment for diabetic microvascular and macrovascular complications” (priority 2003, published 2005)
“Also recorded” adds a separate entry of the source.

Columns and labels:
rat INS-1 β-cells = assay: MTS cell viability: protection of INS-1 β-cells from STZ, Example 3; format: cell-based; conditions: for protection of INS-1 cells from STZ (relative viability): different concentrations of alpha- or gamma-tocopherol, overnight pre-incubation, then 24 hours with STZ 1 mM
Method: INS-1 cells were cultured overnight in 96 well culture plates in a humidified incubator at 37° C., in the presence or absence of different concentrations of alpha- or gamma-tocopherol and then in the presence of a combination of equimolar parts of gamma- and alpha-tocopherol (25 μM gamma-, 25 μM alpha-tocopherol). The cells at each condition were then cultured for an additional 24 hours either in the presence or absence of STZ (1 mM). Alpha-tocopherol and gamma-tocopherol concentrations in each well were kept the same as those used in the pre-incubation phase. Cell viability was measured with the MTS assay. Results were normalized and values were expressed relative to control (relative viability).

[1] = test system: Retinal endothelial cells; assay: MTS cell viability: protection of retinal endothelial cells from 25 mM glucose and 2 mM palmitate, Example 2; format: cell-based, Rhesus monkey; conditions: tocopherol used alone; overnight pre-incubation, then 8 hours with 25 mM glucose and 2 mM palmitate
Method: Retinal endothelial cells were cultured overnight in 96 well culture plates in a humidified incubator at 37° C., in the presence or absence of either 50 μM of alpha-tocopherol, 50 μM of gamma-tocopherol or 25 μM alpha-tocopherol plus 25 μM gamma-tocopherol when used in combination. The cells at each condition were then cultured for an additional 8 hours either in the presence or absence of 25 mM glucose and 2 mM palmitate. Alpha-tocopherol and gamma-tocopherol concentrations in each well were kept the same as those used in the pre-incubation phase. Cell viability was measured with the MTS assay. Results were normalized and values were expressed relative to basal glucose control (relative viability).

[2] = test system: Rhesus monkey retinal endothelial cells (ATCC CRL-1780); assay: MTS cell viability of retinal endothelial cells exposed to hyperglycemia and elevated FFA (palmitate), Example 1; format: cell-based; conditions: hyperglycemia (25 mM glucose) and elevated FFA (1 and 2 mM palmitate), overnight
Method: Rhesus monkey retinal endothelial cells (ATCC CRL-1780) were cultured overnight in 96 well culture plates in a humidified incubator at 37° C., under either basal (5 mM) or hyperglycemic (25 mM) conditions in the absence FFA or in with a 1 and 2 mM palmitate concentration illustrating an elevated FFA environment. At the end of the incubation period endothelial cell viability was measured with the MTS assay and results were expressed relative to the control (5 mM glucose no FFA). The results are shown in Table 1, where error bars represent standard deviations from the mean of triplicate measurements per condition. The relative viability of endothelial cells exposed to hyperglycemia and elevated FFA, as compared to the control, was about 45%. The data in Table 1 illustrates that FFA are cytotoxic to retinal endothelial cells and that their cytotoxicity is enhanced by hyperglycemia. [drawing]

For `CN(N=O)C(=O)N[C@@H]1[C@@H](O)[C@H](O)[C@@H](CO)O[C@@H]1O` [STZ], the “effect of STZ on viability of INS-1 cells” value (rat INS-1 β-cells; STZ 1 mM, 24 hours) was “reduced viability”.
`Cc1c(C)c2c(c(C)c1O)CC[C@@](C)(CCC[C@H](C)CCC[C@H](C)CCCC(C)C)O2` [alpha-tocopherol] was tested, and the “relative cell viability (relative to basal glucose control)” value [1] was 40 to 50% and the “protection of INS-1 cells from STZ (relative viability)” value (rat INS-1 β-cells) was “protected from these effects in a dose dependent manner”.
In the case of `Cc1c(O)cc2c(c1C)O[C@](C)(CCC[C@H](C)CCC[C@H](C)CCCC(C)C)CC2` [gamma-tocopherol], the “protection of INS-1 cells from STZ (relative viability)” value (rat INS-1 β-cells) is reported as “protected from these effects in a dose dependent manner; also recorded: more effective than alpha-tocopherol”.
For `CCCCCCCCCCCCCCCC(=O)O` [palmitate], the “relative viability of endothelial cells as compared to the control (5 mM glucose no FFA)” value [2] was “about 45%”.
